Earlier results in patent US20130210861A1, “METHODS AND COMPOSITIONS FOR MANAGING CARDIOVASCULAR DISEASE ASSOCIATED WITH CHRONIC KIDNEY DISEASE” (priority 2011, published 2013).
Read-outs that look alike come from different tables or passages of the source.

How the values were obtained:
[1] = tested on: matrix metallo proteinase-9 (MMP-9); conditions: SLE patients
[2] = multiple rheumatological cohorts with CVD
[3] = Lumina cohort, southern US
[4] = HCQ use
[5] = Latin American cohort
[6] = patients with inflammatory disorders
[7] = not given; remark: listed apart in the source

Row | SMILES | MMP-9 secretion [1] | OR for death [2] | cardiovascular deaths in patients using HCQ (232 patients, 52-month study period, 7 deaths in those never exposed to HCQ) | HR for death from any cause (Spanish trial cohort, HCQ use) | OR for death [3] | OR for metabolic syndrome [4] | OR for vascular events [4] | OR for death [5] | fasting glucose [6] | atheroprotection (APO E -/- mice) | absorption ([7]; 200 mg tablet) | elimination half-life ([7]; 200 mg tablet (155 mg of base)) [days] | plasma protein binding ([7]; in vivo)
1 | CCN(CCO)CCCC(C)Nc1ccnc2cc(Cl)ccc12 (centres unmarked) [HCQ, hydroxychloroquine] | inhibited | 0.12-0.49 | zero | 0.14 | 0.31 | 0.13 | 0.3 | 0.62 | lowered | significant atheroprotection | absorbed rapidly and completely | 32 to 50 | moderate
2 | CCN(CC)CCCC(C)Nc1ccnc2cc(Cl)ccc12 (centres unmarked) [Chloroquine] | – | – | – | – | – | – | – | – | – | significant atheroprotection activity | – | – | –
